# Measured values as given in patent US10913727B2, “Modulators of the integrated stress pathway” (Calico Life Sciences LLC, priority 2016, dated 2021).
# Test system: HEK293T cells carrying the ATF4 luciferase reporter
# Assay: ATF4-Luc assay, in vitro model of Vanishing Cell White Matter Disease (VWMD)
# Type: cell-based
# Details: Homo sapiens, HEK-293T, 1 μg/mL tunicamycin, 7 hours, One Glo luminescence
# Method in brief: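 Compound at 200 nM and tunicamycin at 1 μg/mL were given together for 7 h to HEK293T cells stably transduced with an ATF4 5′-UTR-driven firefly luciferase reporter. Read-out by luminescence, reported as EC50.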
row,SMILES,EC50 [nM]
1,"Cc1cc(C(=O)NC23CCC(NC(=O)COc4ccc(Cl)c(Cl)c4)(C2)C3)nn1-c1ccc(Cl)cc1 [Compound 111, 1-(4-chlorophenyl)-N-{4-[2-(3,4-dichlorophenoxy)acetamido]bicyclo[2.1.1]-hexan-1-yl}5-methyl-1H-pyrazole-3-carboxamide]",> 2000
2,"O=C(COc1ccc(Cl)c(F)c1)NC12CC(NC(=O)c3cnc(C4=CCC(O)CC4)o3)(C1)C2 (stereo not drawn) [Compound 163, N-{3-[2-(4-chloro-3-fluorophenoxy)acetamido]bicyclo[1.1.1]pentan-1-yl}-2-(4-hydroxycyclohex-1-en-1-yl)-1,3-oxazole-5-carboxamide]",1000 to 2000
3,"O=C(COc1ccc(Cl)c(F)c1)NC12CC(NC(=O)c3ccc(-c4ccc(Cl)c(F)c4)o3)(C1)C2 [Compound 106, N-{3-[2-(4-chloro-3-fluorophenoxy)acetamido]bicyclo[1.1.1]pentan-1-yl}-5-(4-chloro-3-fluorophenyl)furan-2-carboxamide]",< 50
4,"O=C(COc1ccc(Cl)c(F)c1)NC12CC(NC(=O)c3cccc(-n4cnnc4)c3)(C1)C2 [Compound 902, N-{3-[2-(4-chloro-3-fluorophenoxy)acetamido]bicyclo[1.1.1]pentan-1-yl}-3-(4H-1,2,4-triazol-4-yl)benzamide]",> 2000
5,"Cc1cc(C(=O)NC23CCC(NC(=O)COc4ccc(Cl)c(F)c4)(CC2)C(O)C3)nn1C (stereo not drawn) [Compound 468, N-{4-[2-(4-chloro-3-fluorophenoxy)acetamido]-3-hydroxybicyclo[2.2.2]octan-1-yl}-1,5-dimethyl-1H-pyrazole-3-carboxamide]",250 to 1000
6,"CCc1ccc(C(=O)NC23CC(NC(=O)COc4ccc(Cl)c(F)c4)(C2)C3)cc1 [Compound 761, N-{3-[2-(4-chloro-3-fluorophenoxy)acetamido]bicyclo[1.1.1]pentan-1-yl}-4-ethylbenzamide]",> 2000
7,"O=C(COc1ccc(F)c(F)c1)NC12CC(NC(=O)c3ccc(CCC4CC4)cn3)(C1)C2 [Compound 291, 5-(2-cyclopropylethyl)-N-{3-[2-(3,4-difluorophenoxy)acetamido]bicyclo[1.1.1]pentan-1-yl}pyridine-2-carboxamide]",50 to 250
8,"O=C(COc1ccc(Cl)c(F)c1)NC12CC(NC(=O)c3ccc(C(F)(F)F)cn3)(C1)C2 [Compound 120, N-{3-[2-(4-chloro-3-fluorophenoxy)acetamido]bicyclo[1.1.1]pentan-1-yl}-5-(trifluoromethyl)pyridine-2-carboxamide]",50 to 250
9,"NS(=O)(=O)c1cccc(C(=O)NC23CC(NC(=O)COc4ccc(Cl)c(F)c4)(C2)C3)c1 [Compound 768, N-{3-[2-(4-chloro-3-fluorophenoxy)acetamido]bicyclo[1.1.1]pentan-1-yl}-3-sulfamoylbenzamide]",> 2000
10,"O=C(COc1ccc(F)c(F)c1)NC12CC(NC(=O)c3cnc(C(F)F)cn3)(C1)C2 [Compound 278, 5-(difluoromethyl)-N-{3-[2-(3,4-difluorophenoxy)acetamido]bicyclo[1.1.1]pentan-1-yl}pyrazine-2-carboxamide]",250 to 1000
11,"O=C(COc1ccc(Cl)c(Cl)c1)NC12CC(NC(=O)c3cnc(-c4ccccc4)o3)(C1)C2 [Compound 740, N-{3-[2-(3,4-dichlorophenoxy)acetamido]bicyclo[1.1.1]pentan-1-yl}-2-phenyl-1,3-oxazole-5-carboxamide]",< 50
12,"O=C(COc1ccc(Cl)c(F)c1)NC12CC(NC(=O)c3cn[nH]c3)(C1)C2 [Compound 310, N-{3-[2-(4-chloro-3-fluorophenoxy)acetamido]bicyclo[1.1.1]pentan-1-yl}-1H-pyrazole-4-carboxamide]",> 2000
13,"Cc1cnc(C(=O)NC23CCC(NC(=O)COc4ccc5c(c4)OC(F)(F)O5)(CC2)[C@@H](O)C3)cn1 [Compound 638, N-[(3S)-4-{2-[(2,2-difluoro-2H-1,3-benzodioxol-5-yl)oxy]acetamido}-3-hydroxybicyclo[2.2.2]octan-1-yl]-5-methylpyrazine-2-carboxamide]",250 to 1000
14,"O=C(COc1ccc(Cl)c(F)c1)NC12CC(NC(=O)c3cnc4ccnn4c3)(C1)C2 [Compound 690, N-{3-[2-(4-chloro-3-fluorophenoxy)acetamido]bicyclo[1.1.1]pentan-1-yl}pyrazolo[1,5-a]pyrimidine-6-carboxamide]",250 to 1000
15,"O=C(COc1ccc(Cl)c(F)c1)NC12CCC(NC(=O)c3ccc(C(F)(F)F)cn3)(CC1)C[C@@H]2O [Compound 728, N-{(3S)-4-[2-(4-chloro-3-fluorophenoxy)acetamido]-3-hydroxybicyclo[2.2.2]octan-1-yl}-5-(trifluoromethyl)pyridine-2-carboxamide]",< 50
16,"O=C(COc1ccc(Cl)c(F)c1)NC12CC(Nc3nccn4ncnc34)(C1)C2 [Compound 448, 2-(4-chloro-3-fluorophenoxy)-N-{3-[([1,2,4]triazolo[1,5-a]pyrazin-8-yl)amino]bicyclo[1.1.1]pentan-1-yl}acetamide]",1000 to 2000
17,"CSc1nccc(C(=O)NC23CC(NC(=O)COc4ccc(Cl)c(F)c4)(C2)C3)n1 [Compound 838, N-{3-[2-(4-chloro-3-fluorophenoxy)acetamido]bicyclo[1.1.1]pentan-1-yl}-2-(methylsulfanyl)pyrimidine-4-carboxamide]",50 to 250

row,SMILES,EC50 [nM]
1,"O=C(COc1ccc(Cl)c(F)c1)NC12CCC(NC(=O)c3ccc(OC(F)(F)F)cc3)(CC1)C(O)C2 (stereo not drawn) [Compound 225, N-{4-[2-(4-chloro-3-fluorophenoxy)acetamido]-2-hydroxybicyclo[2.2.2]octan-1-yl}-4-(trifluoromethoxy)benzamide]",50 to 250
2,"Cn1cnc2noc(C(=O)NC34CCC(NC(=O)COc5ccc(Cl)c(F)c5)(CC3)C(O)C4)c21 (stereo not drawn) [Compound 412, N-{4-[2-(4-chloro-3-fluorophenoxy)acetamido]-3-hydroxybicyclo[2.2.2]octan-1-yl}-4-methyl-4H-imidazo[4,5-c][1,2]oxazole-3-carboxamide]",> 2000
3,"O=C(COc1ccc(Cl)c(F)c1)NC12CC(NC(=O)c3cc(C(F)F)no3)(C1)C2 [Compound 654, N-{3-[2-(4-chloro-3-fluorophenoxy)acetamido]bicyclo[1.1.1]pentan-1-yl}-3-(difluoromethyl)-1,2-oxazole-5-carboxamide]",50 to 250
4,"Cc1ccc(C(=O)NC23CCC(NC(=O)COc4ccc(Cl)c(F)c4)(CC2)CC3O)nc1 (stereo not drawn) [Compound 169, N-{4-[2-(4-chloro-3-fluorophenoxy)acetamido]-2-hydroxybicyclo[2.2.2]octan-1-yl}-5-methylpyridine-2-carboxamide]",50 to 250
5,"O=C(COc1ccc(Cl)c(F)c1)NC12CCC(NC(=O)c3ccccn3)(CC1)C[C@@H]2O [Compound 727, N-{(3S)-4-[2-(4-chloro-3-fluorophenoxy)acetamido]-3-hydroxybicyclo[2.2.2]octan-1-yl}pyridine-2-carboxamide]",< 50
6,"CC(=O)N1CCC(c2ncc(C(=O)NC34CC(NC(=O)COc5ccc(Cl)c(Cl)c5)(C3)C4)o2)CC1 [Compound 149, 2-(1-acetylpiperidin-4-yl)-N-{3-[2-(3,4-dichlorophenoxy)acetamido]bicyclo[1.1.1]pentan-1-yl}-1,3-oxazole-5-carboxamide]",1000 to 2000
7,"O=C(COc1ccc(Cl)c(F)c1)NC12CC(NC(=O)c3ccc4nsnc4c3)(C1)C2 [Compound 797, N-{3-[2-(4-chloro-3-fluorophenoxy)acetamido]bicyclo[1.1.1]pentan-1-yl}-2,1,3-benzothiadiazole-5-carboxamide]",> 2000
8,"Cc1cnc(C(=O)NC23CCC(NC(=O)COc4ccc(Cl)c(F)c4)(CC2)[C@@H](O)C3)cn1 [Compound 666, N-{(3S)-4-[2-(4-chloro-3-fluorophenoxy)acetamido]-3-hydroxybicyclo[2.2.2]octan-1-yl}-5-methylpyrazine-2-carboxamide]",< 50
9,"CCc1noc(C)c1C(=O)NC12CC(NC(=O)COc3ccc(Cl)c(F)c3)(C1)C2 [Compound 824, N-{3-[2-(4-chloro-3-fluorophenoxy)acetamido]bicyclo[1.1.1]pentan-1-yl}-3-ethyl-5-methyl-1,2-oxazole-4-carboxamide]",> 2000
10,"Cc1nc(C(=O)NC23CCC(NC(=O)COc4ccc(Cl)c(F)c4)(CC2)C(O)C3)c(C)o1 (stereo not drawn) [Compound 472, N-{4-[2-(4-chloro-3-fluorophenoxy)acetamido]-3-hydroxybicyclo[2.2.2]octan-1-yl}-2,5-dimethyl-1,3-oxazole-4-carboxamide]",250 to 1000
11,"Cc1cnc(C(=O)NC23CCC(NC(=O)COc4ccc(Cl)c(F)c4)(CC2)CC3O)cn1 (stereo not drawn) [Compound 220, N-{4-[2-(4-chloro-3-fluorophenoxy)acetamido]-2-hydroxybicyclo[2.2.2]octan-1-yl}-5-methylpyrazine-2-carboxamide]",50 to 250
12,"NC(=O)c1nccnc1C(=O)NC12CC(NC(=O)COc3ccc(Cl)c(F)c3)(C1)C2 [Compound 853, N-2-{3-[2-(4-chloro-3-fluorophenoxy)acetamido]bicyclo[1.1.1]pentan-1-yl}pyrazine-2,3-dicarboxamide]",> 2000
13,"O=C(COc1ccc(Cl)c(F)c1)NC12CCC(NC(=O)c3cnc(C(F)F)cn3)(C1)C2 [Compound 296, N-{4-[2-(4-chloro-3-fluorophenoxy)acetamido]bicyclo[2.1.1]hexan-1-yl}-5-(difluoromethyl)pyrazine-2-carboxamide]",50 to 250
14,"CC(=O)c1ccnc(C(=O)NC23CC(NC(=O)COc4ccc(Cl)c(F)c4)(C2)C3)c1 [Compound 501, 4-acetyl-N-{3-[2-(4-chloro-3-fluorophenoxy)acetamido]bicyclo[1.1.1]pentan-1-yl}pyridine-2-carboxamide]",1000 to 2000
15,"O=C(COc1ccc(Cl)c(F)c1)NC12CC(NC(=O)c3ccc(OC4COC4)nc3)(C1)C2 [Compound 237, N-{3-[2-(4-chloro-3-fluorophenoxy)acetamido]bicyclo[1.1.1]pentan-1-yl}-6-[(oxetan-3-yl)oxy]pyridine-3-carboxamide]",250 to 1000
16,"CC(C)c1ccc(C(=O)NC23CC(NC(=O)COc4ccc(Cl)c(F)c4)(C2)C3)cn1 [Compound 642, N-{3-[2-(4-chloro-3-fluorophenoxy)acetamido]bicyclo[1.1.1]pentan-1-yl}-6-(propan-2-yl)pyridine-3-carboxamide]",1000 to 2000
